Results from patent publication US20250034201A1, “PRODRUGS OF GANAXOLONE” (priority 2022, published 2025).

Assay: in vitro
Assay type: in vitro ADME, human
Details: for half-life / microsomal CLint: human liver microsomes 0.5 mg/mL, with NADPH; for half-life / microsomal CLint / Human Liver Microsomal Stability no NADPH, % remain 1 h: compound 0.5 μM; for half-life: 37° C., read-out: Human Liver Microsomal Stability t1/2; for microsomal CLint: read-out: Human Liver Microsomal Stability CLint (uL/min/mg liver) (converted); for Human Liver Microsomal Stability no NADPH, % remain 1 h / Comments: production of GNX (ganaxolone) in human liver microsomes: human liver microsomes
Method: For several compounds only human liver microsomal stability was tested. […] The microsomal assays were carried out with and without the addition of NADPH at a final concentration of 1 mM. For negative control samples, NADPH reagent was not added. […] Note that compounds undergo only Phase I metabolism in liver microsomes.

Row | SMILES | half-life | microsomal CLint | Human Liver Microsomal Stability no NADPH, % remain 1 h | Comments: production of GNX (ganaxolone) in human liver microsomes
1 | CC(=O)[C@H]1CC[C@H]2[C@@H]3CC[C@H]4C[C@](C)(OC(=O)CNCC(C)(C)O)CC[C@]4(C)[C@H]3CC[C@]12C [Compound 140] | 39.1 min | 35.5 µL/min/mg | 99% | –
2 | CC(=O)[C@H]1CC[C@H]2[C@@H]3CC[C@H]4C[C@](C)(OC(=O)CNC(C)(C)COC(=O)CN5CCOCC5)CC[C@]4(C)[C@H]3CC[C@]12C [Compound 136] | 3 min | 457 µL/min/mg | 0.5% | –
3 | CC(=O)[C@H]1CC[C@H]2[C@@H]3CC[C@H]4C[C@](C)(OC(=O)CC(C)(C)C(=O)O)CC[C@]4(C)[C@H]3CC[C@]12C [Compound 420] | 445 min | 3.11 µL/min/mg | 97.4% | In human no GNX produced
4 | CC(=O)[C@H]1CC[C@H]2[C@@H]3CC[C@H]4C[C@](C)(OC(=O)COC(=O)CNC(=O)[C@H](C)N)CC[C@]4(C)[C@H]3CC[C@]12C [Compound 216] | 192 min | 7.22 µL/min/mg | 80% | –
5 | CC(=O)[C@H]1CC[C@H]2[C@@H]3CC[C@H]4C[C@](C)(OC(=O)CC[C@H](N)C(=O)O)CC[C@]4(C)[C@H]3CC[C@]12C [Compound 416] | 273 min | 5.08 µL/min/mg | 99% | In human no GNX produced
6 | CC(=O)[C@H]1CC[C@H]2[C@@H]3CC[C@H]4C[C@](C)(OC(=O)CN[C@@H](C)C(=O)O)CC[C@]4(C)[C@H]3CC[C@]12C [Compound 131] | 207 min | 6.7 µL/min/mg | 82% | In human no GNX produced
7 | CC(=O)[C@H]1CC[C@H]2[C@@H]3CC[C@H]4C[C@](C)(OC(=O)COC(=O)CO)CC[C@]4(C)[C@H]3CC[C@]12C [Compound 247] | 2.01 min | 689 µL/min/mg | 1.1% | –
8 | CC(=O)[C@H]1CC[C@H]2[C@@H]3CC[C@H]4C[C@](C)(OC(=O)CN5CCC[C@H]5C(=O)OCc5ccccc5)CC[C@]4(C)[C@H]3CC[C@]12C [Compound 128] | 9 min | 153 µL/min/mg | 20% | In human no GNX produced
9 | CC(=O)[C@H]1CC[C@H]2[C@@H]3CC[C@H]4C[C@](C)(OC(=O)CSC(=N)N)CC[C@]4(C)[C@H]3CC[C@]12C [Compound 304] | 173 min | 8.03 µL/min/mg | 83.8% | In human small amount of GNX produced
10 | COC(=O)CNCC(=O)O[C@]1(C)CC[C@@]2(C)[C@@H](CC[C@@H]3[C@@H]2CC[C@]2(C)[C@@H](C(C)=O)CC[C@@H]32)C1 [Compound 110] | 4.15 min | 344 µL/min/mg | 1.5% | In human GNX not produced
11 | CC(=O)[C@H]1CC[C@H]2[C@@H]3CC[C@H]4C[C@](C)(OC(=O)COC(=O)C(C)(C)N5CCOCC5)CC[C@]4(C)[C@H]3CC[C@]12C [Compound 213] | 27.3 min | 50.7 µL/min/mg | 98% | In human small amount of GNX produced
